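Test compounds were applied to cells in 96-well plates for 48 hours at 5 doses. Here, GI50 denotes the concentration required for 50% inhibition of growth. TGI is the concentration that stops growth completely.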 Some results are limits rather than exact numbers.

Some test systems named below: NCI-H226 lung; SF-268 CNS; OVCAR-5 ovarian; HS 578T breast; K-562 leukemia; M14 melanoma; RPMI-8226 leukemia; HOP-62 NSCLC.
What all share (experiment): NCI-60 cell line screen, 48 h

Take `O=C(Oc1ccc(Cl)cc1Cl)c1ccccc1Nc1ccnc(C(F)(F)F)c1`: the GI50 is 3.46 µM with NCI-H226 lung; 3.11 µM in the test on SF-268 CNS; 7.9 µM with OVCAR-5 ovarian; 24.9 µM in the test with HS 578T breast; 3.03 µM with K-562 leukemia; 1.92 µM with M14 melanoma. Besides, the GI50 in the test with RPMI-8226 leukemia was 2.39 µM. In addition, the TGI turned out to be 18.6 µM in the test with NCI-H226 lung; 13.6 µM with SF-268 CNS; 22 µM with OVCAR-5 ovarian; 73.9 µM with HS 578T breast; 8.51 µM in the test on K-562 leukemia; 4.93 µM in the test with M14 melanoma. Besides, in the test on RPMI-8226 leukemia, the TGI worked out at 6.29 µM.
In the case of `CCOc1cc2ncc(C#N)c(Nc3ccc(OCc4cccc(F)c4)c(Cl)c3)c2cc1NC(=O)CC1CCSS1` (configuration not stated), the GI50 was 11 µM in the test on NCI-H226 lung; 0.727 µM in the test with SF-268 CNS; more than 25 µM with OVCAR-5 ovarian; 4.12 µM in the test with HS 578T breast; 0.902 µM in the test with K-562 leukemia; 0.45 µM with M14 melanoma. In the test with RPMI-8226 leukemia, the GI50 was more than 25 µM. Further, the TGI is more than 25 µM in the test with NCI-H226 lung; 3.02 µM in the test with SF-268 CNS; more than 25 µM with OVCAR-5 ovarian; more than 25 µM in the test on HS 578T breast; more than 25 µM in the test with K-562 leukemia; 0.915 µM in the test with M14 melanoma. In addition, the figures for the TGI with RPMI-8226 leukemia and with HOP-62 NSCLC were more than 25 µM and more than 15.1 µM, respectively.
For `Cc1c2c(nn1-c1ccc(S(=O)(=O)NC(=S)Nc3ccccc3)cc1)-c1ccccc1CC2`, the GI50 in the test with NCI-H226 lung is more than 50 µM; in the test with SF-268 CNS, 18.7 µM; with OVCAR-5 ovarian, more than 50 µM; with HS 578T breast, 44.6 µM; in the test on K-562 leukemia it was more than 50 µM; with M14 melanoma, more than 50 µM. In addition, in the test with RPMI-8226 leukemia, the GI50 was 15.5 µM. In addition, the TGI with NCI-H226 lung, in the test with SF-268 CNS, in the test on OVCAR-5 ovarian, in the test with HS 578T breast, in the test on K-562 leukemia and in the test on M14 melanoma was more than 50 µM each time. This molecule had a TGI in the test with RPMI-8226 leukemia of 42.4 µM.
In the case of `COc1ccc2cc(C(=O)/C=C/c3cc(OC)c(OC)c(OC)c3)ccc2c1`, the GI50 with SF-268 CNS was 5.11 µM; in the test with K-562 leukemia, 2.49 µM; in the test on M14 melanoma, 6.52 µM; in the test with RPMI-8226 leukemia, 6.84 µM; in the test on HOP-62 NSCLC, 9.88 µM. For the same molecule, the TGI was 13.7 µM in the test on SF-268 CNS; more than 50 µM with K-562 leukemia; 16.1 µM in the test with M14 melanoma; more than 50 µM with RPMI-8226 leukemia; 20.8 µM in the test on HOP-62 NSCLC.
In the case of `COc1ccc(-c2nc3sc(C)cn3c2/C=C/C(=O)c2cc(OC)c(OC)c(OC)c2)cc1`, the GI50 is 4.12 µM in the test with NCI-H226 lung; 3.53 µM in the test with SF-268 CNS; more than 100 µM with OVCAR-5 ovarian; 3.13 µM with K-562 leukemia; 3.97 µM with M14 melanoma; 4.28 µM in the test with HOP-62 NSCLC. Besides, the TGI in the test with NCI-H226 lung, in the test on SF-268 CNS, with OVCAR-5 ovarian, with K-562 leukemia, with M14 melanoma and in the test with HOP-62 NSCLC was more than 100 µM in each case.
On to `COc1ccc(Cl)cc1Nc1nc(C(F)(F)F)ccc1C(=O)N/N=C/c1c(Cl)cccc1Cl`, for which the GI50 in the test on NCI-H226 lung was 5.54 µM; in the test on SF-268 CNS, 5.28 µM; in the test with OVCAR-5 ovarian, more than 100 µM; in the test on HS 578T breast, 20.2 µM; with K-562 leukemia, 3.34 µM; with HOP-62 NSCLC, 1.35 µM. Moreover, the TGI in the test with NCI-H226 lung was more than 100 µM; with SF-268 CNS, more than 100 µM; in the test with OVCAR-5 ovarian, more than 100 µM; in the test with HS 578T breast, more than 100 µM; in the test on K-562 leukemia, 32.5 µM; with HOP-62 NSCLC, more than 100 µM.
In the case of `CC(=O)n1c(COS(C)(=O)=O)nc2ccccc21`, the TGI with NCI-H226 lung, with SF-268 CNS, in the test with OVCAR-5 ovarian, with HS 578T breast, in the test with M14 melanoma and with HOP-62 NSCLC was more than 100 µM throughout.
For `COc1cc2c3c(n(C)c(=O)c2cc1OC)-c1cc2c(cc1/C3=C\CCCCCN)OCO2`, the GI50 in the test with NCI-H226 lung is 0.601 µM; in the test with SF-268 CNS, 3.92 µM; in the test with OVCAR-5 ovarian, 8.66 µM; with HS 578T breast, 11.7 µM; in the test with M14 melanoma, 2.55 µM; in the test with RPMI-8226 leukemia it was 0.1 µM. The GI50 in the test with HOP-62 NSCLC was 0.612 µM. The TGI with NCI-H226 lung is 13.7 µM; in the test with SF-268 CNS, 47.9 µM; in the test on OVCAR-5 ovarian, more than 52.9 µM; in the test on HS 578T breast, 46.1 µM; in the test on M14 melanoma, more than 46.6 µM; with RPMI-8226 leukemia, 1.38 µM. In the test on HOP-62 NSCLC, the TGI was more than 45.9 µM.
For `O=c1oc2cc(OS(=O)(=O)c3ccc(F)cc3)ccc2c2c1CCCCC2`, the GI50 in the test with NCI-H226 lung was more than 100 µM; in the test with SF-268 CNS, more than 100 µM; in the test with OVCAR-5 ovarian it was more than 100 µM; with HS 578T breast, 55.2 µM; in the test with M14 melanoma, more than 100 µM; in the test on RPMI-8226 leukemia, 3.7 µM. In addition, the GI50 with HOP-62 NSCLC was 45.1 µM. The TGI in the test with NCI-H226 lung, in the test with SF-268 CNS, with OVCAR-5 ovarian, in the test with HS 578T breast, in the test with M14 melanoma and in the test with RPMI-8226 leukemia was more than 100 µM each time. In the test on HOP-62 NSCLC, this molecule had a TGI of more than 100 µM.
Take `CCC[CH2][Sn-]([CH2]CCC)([CH2]CCC)[O]c1cc(Cl)c(Cl)cc1Cl`: the GI50 in the test on NCI-H226 lung is 0.00872 µM; with SF-268 CNS it was 0.229 µM; in the test with HS 578T breast it was 0.00467 µM; in the test on K-562 leukemia, 0.165 µM; in the test with RPMI-8226 leukemia, 0.137 µM; with HOP-62 NSCLC, 0.228 µM. In addition, the TGI came out at 0.244 µM in the test on NCI-H226 lung; 1.05 µM in the test on SF-268 CNS; 0.212 µM in the test on HS 578T breast; 0.411 µM in the test with K-562 leukemia; 0.853 µM in the test on RPMI-8226 leukemia; 0.507 µM in the test with HOP-62 NSCLC.
Regarding `N=C1C(c2nc(-c3ccc(Br)cc3)cs2)=C(O)CN1Cc1cccnc1`, the GI50 in the test on NCI-H226 lung is 11.2 µM; in the test on SF-268 CNS it was 31.6 µM; in the test with OVCAR-5 ovarian, 2.66 µM; in the test on K-562 leukemia, 8.17 µM; in the test with RPMI-8226 leukemia, 2.88 µM; with HOP-62 NSCLC, 17.1 µM. For the same molecule, the TGI with NCI-H226 lung was 33.3 µM; with SF-268 CNS, more than 100 µM; in the test on OVCAR-5 ovarian, 42.8 µM; with HS 578T breast, 2.86 µM; in the test on K-562 leukemia, more than 100 µM; with RPMI-8226 leukemia it was 76.5 µM. This molecule returned a TGI with HOP-62 NSCLC of more than 100 µM.
Turning to `N#Cc1c(Sc2ccccc2N)cccc1Sc1ccccc1N`, the GI50 was 96.8 µM in the test on NCI-H226 lung; 38.4 µM in the test on SF-268 CNS; 22.5 µM in the test on HS 578T breast; 22.9 µM in the test with K-562 leukemia; 62.6 µM in the test on M14 melanoma; 28.8 µM in the test with RPMI-8226 leukemia.

Values taken from PubChem BioAssay (NCI).
